Experimental data as given in PubChem BioAssay AID248 (DTP/NCI, 2004).
Toxic doses and inconclusive results are not listed. Cut-off read from the data, not from the text of the source: active = T/C of 150% or more; inactive = T/C below 125%.

Tested on: L1210 leukemia ip in BDF1 mice, survival T/C
Assay: NCI In Vivo Anticancer Drug Screen. Data for tumor model L1210 Leukemia (intraperitoneal) in B6D2F1 (BDF1) mice
Settings: endpoint: mean survival time, higher = longer survival
Outline: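 Read-out is survival time, reported as the treated-group measurement over the vehicle-control measurement.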

[1] = dose: 100.0 mg/kg/injection, schedule: Q01DX009 (ip), vehicle: Klucel (hydroxypropylcellulose) (HPC)
[2] = dose: 100.0 mg/kg/injection, schedule: Q04DX003 (ip), vehicle: Klucel (hydroxypropylcellulose) (HPC)
[3] = dose: 200.0 mg/kg/injection, schedule: Q01DX009 (ip), vehicle: Klucel (hydroxypropylcellulose) (HPC)
[4] = dose: 200.0 mg/kg/injection, schedule: Q04DX003 (ip), vehicle: Klucel (hydroxypropylcellulose) (HPC)
[5] = dose: 400.0 mg/kg/injection, schedule: Q01DX009 (ip), vehicle: Klucel (hydroxypropylcellulose) (HPC)
[6] = dose: 400.0 mg/kg/injection, schedule: Q04DX003 (ip), vehicle: Klucel (hydroxypropylcellulose) (HPC)
[7] = dose: 100.0 mg/kg/injection, schedule: Q01DX009 (ip), vehicle: saline with Tween-80
[8] = dose: 100.0 mg/kg/injection, schedule: Q04DX003 (ip), vehicle: saline with Tween-80
[9] = dose: 200.0 mg/kg/injection, schedule: Q01DX009 (ip), vehicle: saline with Tween-80
[10] = dose: 200.0 mg/kg/injection, schedule: Q04DX003 (ip), vehicle: saline with Tween-80
[11] = dose: 400.0 mg/kg/injection, schedule: Q01DX009 (ip), vehicle: saline with Tween-80
[12] = dose: 400.0 mg/kg/injection, schedule: Q04DX003 (ip), vehicle: saline with Tween-80

Measured: T/C

Cc1c(Cl)cccc1NS(=O)(=O)c1ccc(Cl)cc1
inactive: [1] 117 % of control | [2] 102 % of control | [3] 111 % of control | [4] 119 % of control | [5] 101 % of control | [6] 110 % of control

Fc1ccc(CSC(=S)Nc2ccc(Cl)c(Cl)c2)cc1
inactive: dose: 75.0 mg/kg/injection, schedule: Q04DX003 (ip), vehicle: saline with Tween-80 102 % of control | dose: 150.0 mg/kg/injection, schedule: Q04DX003 (ip), vehicle: saline with Tween-80 106 % of control

NC(N)=N/N=C(/c1ccccc1)c1ccc(Cl)cc1
inactive: dose: 15.0 mg/kg/injection, schedule: Q01DX Z (ip), vehicle: saline 90 % of control | dose: 30.0 mg/kg/injection, schedule: Q01DX Z (ip), vehicle: saline 92 % of control | dose: 60.0 mg/kg/injection, schedule: Q01DX Z (ip), vehicle: saline 97 % of control | dose: 60.0 mg/kg/injection, schedule: Q01DX Z (oral), vehicle: saline 95 % of control | dose: 120.0 mg/kg/injection, schedule: Q01DX Z (ip), vehicle: saline 110 % of control | dose: 120.0 mg/kg/injection, schedule: Q01DX Z (oral), vehicle: saline 92 % of control | dose: 240.0 mg/kg/injection, schedule: Q01DX Z (ip), vehicle: saline 108 % of control | dose: 240.0 mg/kg/injection, schedule: Q01DX Z (oral), vehicle: saline 107 % of control | dose: 480.0 mg/kg/injection, schedule: Q01DX010 (oral), vehicle: saline 96 % of control | dose: 960.0 mg/kg/injection, schedule: Q01DX010 (oral), vehicle: saline 91 % of control

COC1CC(NC(=O)N(C)N=O)C(O)C(C)O1 (configuration not stated)
inactive: dose: 400.0 mg/kg/injection, schedule: Q04DX003 (ip), vehicle: saline 106 % of control | dose: 500.0 mg/kg/injection, schedule: Q04DX003 (ip), vehicle: saline 101 % of control

O=c1cc(C(O)c2ccccc2)c2cccc3c2n1CCC3 (configuration not stated)
inactive: [7] 95 % of control | [8] 98 % of control | [9] 95 % of control | [10] 95 % of control | [11] 101 % of control | [12] 89 % of control

CCCc1nc2ccccc2[nH]1
inactive: [8] 96 % of control | [10] 100 % of control

OC(C1CCCCC1)(C1CCCCC1)C1CCCCC1
inactive: [7] 101 % of control | [2] 91 % of control | [9] 96 % of control | [4] 92 % of control | [11] 96 % of control | [6] 96 % of control

[N-]=[N+]=CC(=O)NCC(N)=O
inactive: dose: 125.0 mg/kg/injection, schedule: Q01DX009 (ip), vehicle: other 110 % of control | dose: 125.0 mg/kg/injection, schedule: Q01DX009 (sc), vehicle: other 91 % of control | dose: 222.0 mg/kg/injection, schedule: Q01DX Z (ip), vehicle: water 121 % of control | dose: 250.0 mg/kg/injection, schedule: Q01DX009 (sc), vehicle: other 97 % of control | dose: 500.0 mg/kg/injection, schedule: Q01DX009 (sc), vehicle: other 103 % of control | dose: 750.0 mg/kg/injection, schedule: Q01DX009 (sc), vehicle: other 97 % of control | dose: 750.0 mg/kg/injection, schedule: Q01DX Z (ip), vehicle: water 104 % of control

CCCCN(CC)CCNc1cc(C)nc(/N=C(\N)Nc2ccc(Cl)c(Cl)c2)n1
inactive: dose: 18.75 mg/kg/injection, schedule: Q01DX009 (ip), vehicle: Klucel (hydroxypropylcellulose) (HPC) 102 % of control | dose: 37.5 mg/kg/injection, schedule: Q01DX009 (ip), vehicle: Klucel (hydroxypropylcellulose) (HPC) 88 % of control

CC(C)c1ccc(N2C(=O)C=CC2=O)cc1
inactive: dose: 12.5 mg/kg/injection, schedule: Q01DX009 (ip), vehicle: Klucel (hydroxypropylcellulose) (HPC) 100 % of control | dose: 25.0 mg/kg/injection, schedule: Q01DX009 (ip), vehicle: Klucel (hydroxypropylcellulose) (HPC) 91 % of control

C(=C\c1ccccc1)/Nc1ccccc1
inactive: [2] 97 % of control | [4] 96 % of control | [6] 92 % of control

Cc1ccc(S(=O)(=O)NCC(=O)NCC(=O)Oc2c(Cl)c(Cl)c(Cl)c(Cl)c2Cl)cc1
inactive: dose: 100.0 mg/kg/injection, schedule: Q01DX001 (ip), vehicle: water 95 % of control | dose: 200.0 mg/kg/injection, schedule: Q01DX001 (ip), vehicle: water 96 % of control | dose: 400.0 mg/kg/injection, schedule: Q01DX001 (ip), vehicle: water 95 % of control

COc1ccccc1C1OCC(C)(C)CO1
inactive: [1] 90 % of control | [2] 109 % of control | [3] 95 % of control | [4] 103 % of control | [5] 92 % of control | [6] 108 % of control

CCc1cccc(CC)c1NC(=S)NN
inactive: dose: 100.0 mg/kg/injection, schedule: Q04DX002 (ip), vehicle: saline with Tween-80 103 % of control

COc1c2c(c(OC)c3ccccc13)C(=O)c1ccccc1C2=O
inactive: dose: 50.0 mg/kg/injection, schedule: Q01DX005 (ip), vehicle: saline 94 % of control | dose: 100.0 mg/kg/injection, schedule: Q01DX005 (ip), vehicle: saline 91 % of control | dose: 200.0 mg/kg/injection, schedule: Q01DX005 (ip), vehicle: saline 91 % of control

CC1C(=O)C(=O)C(CCc2ccccc2)C1=O (configuration not stated)
inactive: [8] 97 % of control | [10] 97 % of control | [12] 97 % of control

COc1ccc(/C=C2\SC(=S)NC2=O)cc1OC
inactive: dose: 100.0 mg/kg/injection, schedule: Q01DX009 (ip), vehicle: saline sonified 96 % of control | [2] 98 % of control | dose: 200.0 mg/kg/injection, schedule: Q01DX009 (ip), vehicle: saline sonified 108 % of control | [4] 96 % of control | dose: 400.0 mg/kg/injection, schedule: Q01DX009 (ip), vehicle: saline sonified 94 % of control | [6] 96 % of control

CSc1ncnc2c1ncn2N(CCCCN=C=S)C(C)=O
inactive: dose: 12.5 mg/kg/injection, schedule: Q01DX001 (ip), vehicle: saline with Tween-80 107 % of control | dose: 25.0 mg/kg/injection, schedule: Q01DX001 (ip), vehicle: saline with Tween-80 98 % of control | dose: 50.0 mg/kg/injection, schedule: Q01DX001 (ip), vehicle: saline with Tween-80 103 % of control

CN1CC2C3C=CC(C3)C2C1 (configuration not stated)
inactive: dose: 75.0 mg/kg/injection, schedule: Q01DX001 (ip), vehicle: other 96 % of control | dose: 150.0 mg/kg/injection, schedule: Q01DX001 (ip), vehicle: other 88 % of control

NC(CCl)=NCCN1CCNC1=O
inactive: dose: 100.0 mg/kg/injection, schedule: Q04DX002 (ip), vehicle: saline 107 % of control | dose: 200.0 mg/kg/injection, schedule: Q04DX002 (ip), vehicle: saline 104 % of control | dose: 400.0 mg/kg/injection, schedule: Q04DX002 (ip), vehicle: saline 96 % of control

Clc1ccccc1C=Nc1ccc2c(c1)Cc1ccccc1-2
inactive: dose: 100.0 mg/kg/injection, schedule: Q01DX001 (ip), vehicle: Klucel (hydroxypropylcellulose) (HPC) 87 % of control | [2] 101 % of control | dose: 200.0 mg/kg/injection, schedule: Q01DX001 (ip), vehicle: Klucel (hydroxypropylcellulose) (HPC) 93 % of control | [4] 94 % of control | dose: 400.0 mg/kg/injection, schedule: Q01DX001 (ip), vehicle: Klucel (hydroxypropylcellulose) (HPC) 87 % of control | [6] 101 % of control

NOCc1c(F)c(F)c(F)c(F)c1F
inactive: dose: 100.0 mg/kg/injection, schedule: Q04DX003 (ip), vehicle: saline sonified 93 % of control | dose: 200.0 mg/kg/injection, schedule: Q04DX003 (ip), vehicle: saline sonified 104 % of control

NC(=O)NC(Cc1ccccc1)(C(=O)O)c1ccccc1 (configuration not stated)
inactive: [2] 103 % of control | [4] 98 % of control | [6] 103 % of control

CCOC(=O)N1CCN2C(=O)N(CC)CCC2C1 (configuration not stated)
inactive: dose: 100.0 mg/kg/injection, schedule: Q01DX001 (ip), vehicle: saline 93 % of control | dose: 200.0 mg/kg/injection, schedule: Q01DX001 (ip), vehicle: saline 93 % of control | dose: 400.0 mg/kg/injection, schedule: Q01DX001 (ip), vehicle: saline 94 % of control

O=S(=O)(O)c1ccccn1
inactive: dose: 100.0 mg/kg/injection, schedule: Q04DX003 (ip), vehicle: saline 98 % of control | dose: 200.0 mg/kg/injection, schedule: Q04DX003 (ip), vehicle: saline 93 % of control

O=C(O)c1ccc(S(=O)(=O)F)c(Cl)c1
inactive: [7] 100 % of control | [9] 102 % of control | [11] 89 % of control
